In ChEMBL document CHEMBL3390836, “Mannich- and LedererManasse-based analogues of the natural product S-(+)-curcuphenol as cancer proliferation and migration inhibitors” (Medchemcomm, 2012):

Assays:
Type in all cases: functional
HT-29 [1] = experiment: Cytotoxicity against human HT-29 cells assessed as cell growth at 10^-4 M after 48 hrs by SRB assay relative to control; settings: HT-29, 48 h, read-out: Activity
Malme-3M = experiment: Cytotoxicity against human MALME-3M cells after 48 hrs by SRB assay; settings: for CC50: read-out: LC50 (the source's name)
SN12C [2] = experiment: Cytotoxicity against human SN12C cells after 48 hrs by SRB assay
TK-10 [3] = experiment: Cytotoxicity against human TK10 cells after 48 hrs by SRB assay; settings: TK-10, 48 h
A549 [4] = experiment: Cytotoxicity against human A549 cells assessed as cell growth at 10^-8 M after 48 hrs by SRB assay relative to control; settings: A549, 48 h, read-out: Activity
[5] = Cytotoxicity against human HCT116 cells assessed as cell growth at 10^-8 M after 48 hrs by SRB assay relative to control; settings: HCT-116, 48 h, read-out: Activity
SF-268 = experiment: Cytotoxicity against human SF268 cells assessed as cell growth at 10^-8 M after 48 hrs by SRB assay relative to control; settings: SF-268, 48 h, read-out: Activity
SK-MEL-2 = experiment: Cytotoxicity against human SK-MEL-2 cells assessed as cell growth at 10^-4 M after 48 hrs by SRB assay relative to control; settings: SK-MEL-2, 48 h, read-out: Activity
[6] = Cytotoxicity against human UACC62 cells assessed as cell growth at 10^-4 M after 48 hrs by SRB assay relative to control; settings: UACC-62, 48 h, read-out: Activity
[7] = Cytotoxicity against human OVCAR8 cells assessed as cell growth at 10^-4 M after 48 hrs by SRB assay relative to control; settings: OVCAR-8, 48 h, read-out: Activity
SN12C [8] = experiment: Cytotoxicity against human SN12C cells assessed as cell growth at 10^-4 M after 48 hrs by SRB assay relative to control; settings: read-out: Activity
MCF7 = experiment: Cytotoxicity against human MCF7 cells assessed as cell growth at 10^-4 M after 48 hrs by SRB assay relative to control; settings: MCF7, 48 h, read-out: Activity
MDA-MB-231 = experiment: Cytotoxicity against human MDA-MB-231 cells assessed as cell growth at 10^-4 M after 48 hrs by SRB assay relative to control; settings: MDA-MB-231, 48 h, read-out: Activity
[9] = Cytotoxicity against human Hs 578T cells assessed as cell growth at 10^-4 M after 48 hrs by SRB assay relative to control; settings: read-out: Activity
T47D [10] = experiment: Cytotoxicity against human T47D cells assessed as cell growth at 10^-4 M after 48 hrs by SRB assay relative to control; settings: read-out: Activity
MDA-MB-468 = experiment: Cytotoxicity against human MDA-MB-468 cells assessed as cell growth at 10^-4 M after 48 hrs by SRB assay relative to control; settings: MDA-MB-468, 48 h, read-out: Activity
[11] = Cytotoxicity against human OVCAR3 cells assessed as cell growth at 10^-8 M after 48 hrs by SRB assay relative to control; settings: OVCAR-3, 48 h, read-out: Activity
[12] = Cytotoxicity against human NCI-ADR-RES cells assessed as cell growth at 10^-8 M after 48 hrs by SRB assay relative to control; settings: read-out: Activity
T47D [13] = experiment: Cytotoxicity against human T47D cells assessed as cell growth at 10^-8 M after 48 hrs by SRB assay relative to control; settings: read-out: Activity
NCI-H226 = experiment: Cytotoxicity against human NCI-H226 cells assessed as cell growth at 10^-7 M after 48 hrs by SRB assay relative to control; settings: NCI-H226, 48 h, read-out: Activity
HT-29 [14] = experiment: Cytotoxicity against human HT-29 cells assessed as cell growth at 10^-7 M after 48 hrs by SRB assay relative to control; settings: HT-29, 48 h, read-out: Activity
SNB-19 = experiment: Cytotoxicity against human SNB19 cells assessed as cell growth at 10^-7 M after 48 hrs by SRB assay relative to control; settings: SNB-19, 48 h, read-out: Activity
U-251 = experiment: Cytotoxicity against human U251 cells assessed as cell growth at 10^-7 M after 48 hrs by SRB assay relative to control; settings: U-251, 48 h, read-out: Activity
A549 [15] = experiment: Cytotoxicity against human A549 cells after 48 hrs by SRB assay; settings: A549, 48 h
COLO 205 = experiment: Cytotoxicity against human COLO205 cells after 48 hrs by SRB assay; settings: COLO 205, 48 h; for CC50: read-out: LC50 (the source's name)
[16] = Cytotoxicity against human OVCAR3 cells assessed as cell growth at 10^-7 M after 48 hrs by SRB assay relative to control; settings: OVCAR-3, 48 h, read-out: Activity
T47D [17] = experiment: Cytotoxicity against human T47D cells assessed as cell growth at 10^-7 M after 48 hrs by SRB assay relative to control; settings: read-out: Activity
K562 = experiment: Cytotoxicity against human K562 cells assessed as cell growth at 10^-6 M after 48 hrs by SRB assay relative to control; settings: K562, 48 h, read-out: Activity
HOP-62 = experiment: Cytotoxicity against human HOP62 cells assessed as cell growth at 10^-6 M after 48 hrs by SRB assay relative to control; settings: HOP-62, 48 h, read-out: Activity
NCI-H23 = experiment: Cytotoxicity against human NCI-H23 cells assessed as cell growth at 10^-6 M after 48 hrs by SRB assay relative to control; settings: NCI-H23, 48 h, read-out: Activity
HCC 2998 = experiment: Cytotoxicity against human HCC2998 cells assessed as cell growth at 10^-6 M after 48 hrs by SRB assay relative to control; settings: HCC 2998, 48 h, read-out: Activity
[18] = Cytotoxicity against human HCT15 cells assessed as cell growth at 10^-6 M after 48 hrs by SRB assay relative to control; settings: HCT-15, 48 h, read-out: Activity
[19] = Cytotoxicity against human OVCAR3 cells assessed as cell growth at 10^-6 M after 48 hrs by SRB assay relative to control; settings: OVCAR-3, 48 h, read-out: Activity
CAKI-1 = experiment: Cytotoxicity against human Caki1 cells assessed as cell growth at 10^-6 M after 48 hrs by SRB assay relative to control; settings: CAKI-1, 48 h, read-out: Activity
SN12C [20] = experiment: Cytotoxicity against human SN12C cells assessed as cell growth at 10^-6 M after 48 hrs by SRB assay relative to control; settings: read-out: Activity
TK-10 [21] = experiment: Cytotoxicity against human TK10 cells assessed as cell growth at 10^-6 M after 48 hrs by SRB assay relative to control; settings: TK-10, 48 h, read-out: Activity

COc1ccc(CCN2COc3c([C@@H](C)CCC=C(C)C)ccc(C)c3C2)cc1OC
growth at 100 µM (HT-29 [1]): -89%
GI50 (Malme-3M): 1.53 µM
TGI (Malme-3M): 3.18 µM
CC50 (Malme-3M): 6.61 µM
GI50 (SN12C [2]): 3.27 µM
LC50 (SN12C [2]): 36.8 µM
TGI (SN12C [2]): 13.5 µM
GI50 (TK-10 [3]): 2.19 µM
LC50 (TK-10 [3]): 24.6 µM
TGI (TK-10 [3]): 5.95 µM
growth at 0.01 µM (A549 [4]): 87%
growth at 0.01 µM [5]: 98%
growth at 0.01 µM (SF-268): 85%
growth at 100 µM (SK-MEL-2): -95%
growth at 100 µM [6]: -99%
growth at 100 µM [7]: -54%
growth at 100 µM (SN12C [8]): -100%
growth at 100 µM (MCF7): -92%
growth at 100 µM (MDA-MB-231): -91%
growth at 100 µM [9]: -66%
growth at 100 µM (T47D [10]): -91%
growth at 100 µM (MDA-MB-468): -92%
growth at 0.01 µM [11]: 95%
growth at 0.01 µM [12]: 98%
growth at 0.01 µM (T47D [13]): 88%
growth at 0.1 µM (NCI-H226): 88%
growth at 0.1 µM (HT-29 [14]): 93%
growth at 0.1 µM (SNB-19): 96%
growth at 0.1 µM (U-251): 88%
GI50 (A549 [15]): 10.3 µM
LC50 (A549 [15]): 96.3 µM
TGI (A549 [15]): 31.5 µM
GI50 (COLO 205): 1.79 µM
TGI (COLO 205): 3.19 µM
CC50 (COLO 205): 5.7 µM
growth at 0.1 µM [16]: 91%
growth at 0.1 µM (T47D [17]): 69%
growth at 1 µM (K562): 98%
growth at 1 µM (HOP-62): 97%
growth at 1 µM (NCI-H23): 104%
growth at 1 µM (HCC 2998): 88%
growth at 1 µM [18]: 90%
growth at 1 µM [19]: 91%
growth at 1 µM (CAKI-1): 83%
growth at 1 µM (SN12C [20]): 87%
growth at 1 µM (TK-10 [21]): 89%

CC(C)=CCC[C@H](C)c1ccc(C)c2c1OCN(CC1CCNCC1)C2
growth at 100 µM (HT-29 [1]): -66%
GI50 (Malme-3M): 17.7 µM
TGI (Malme-3M): 35.3 µM
CC50 (Malme-3M): 70.2 µM
GI50 (SN12C [2]): 14.2 µM
LC50 (SN12C [2]): 58.7 µM
TGI (SN12C [2]): 28.9 µM
GI50 (TK-10 [3]): 14.4 µM
LC50 (TK-10 [3]): 59.5 µM
TGI (TK-10 [3]): 29.3 µM
growth at 0.01 µM (A549 [4]): 95%
growth at 0.01 µM [5]: 100%
growth at 0.01 µM (SF-268): 102%
growth at 100 µM (SK-MEL-2): -78%
growth at 100 µM [6]: -92%
growth at 100 µM [7]: -85%
growth at 100 µM (SN12C [8]): -88%
growth at 100 µM (MCF7): -95%
growth at 100 µM (MDA-MB-231): -77%
growth at 100 µM [9]: -75%
growth at 100 µM (T47D [10]): -70%
growth at 100 µM (MDA-MB-468): -80%
growth at 0.01 µM [11]: 99%
growth at 0.01 µM [12]: 104%
growth at 0.01 µM (T47D [13]): 95%
growth at 0.1 µM (NCI-H226): 98%
growth at 0.1 µM (HT-29 [14]): 112%
growth at 0.1 µM (SNB-19): 95%
growth at 0.1 µM (U-251): 101%
GI50 (A549 [15]): 13 µM
LC50 (A549 [15]): 59.7 µM
TGI (A549 [15]): 27.8 µM
GI50 (COLO 205): 1.86 µM
TGI (COLO 205): 3.41 µM
CC50 (COLO 205): 6.25 µM
growth at 0.1 µM [16]: 105%
growth at 0.1 µM (T47D [17]): 94%
growth at 1 µM (K562): 93%
growth at 1 µM (HOP-62): 90%
growth at 1 µM (NCI-H23): 105%
growth at 1 µM (HCC 2998): 104%
growth at 1 µM [18]: 95%
growth at 1 µM [19]: 105%
growth at 1 µM (CAKI-1): 98%
growth at 1 µM (SN12C [20]): 102%
growth at 1 µM (TK-10 [21]): 118%

CC(C)=CCC[C@H](C)c1ccc(C)c(CNCC2CCNCC2)c1O
growth at 100 µM (HT-29 [1]): -66%
GI50 (Malme-3M): 4.5 µM
TGI (Malme-3M): 9.68 µM
CC50 (Malme-3M): 20.8 µM
GI50 (SN12C [2]): 12.9 µM
LC50 (SN12C [2]): > 25 µM
TGI (SN12C [2]): > 25 µM
GI50 (TK-10 [3]): 0.0551 µM
LC50 (TK-10 [3]): > 25 µM
TGI (TK-10 [3]): 17.8 µM
growth at 0.01 µM (A549 [4]): 101%
growth at 0.01 µM [5]: 100%
growth at 0.01 µM (SF-268): 97%
growth at 100 µM (SK-MEL-2): -70%
growth at 100 µM [6]: -81%
growth at 100 µM [7]: -60%
growth at 100 µM (SN12C [8]): 39%
growth at 100 µM (MCF7): -89%
growth at 100 µM (MDA-MB-231): -65%
growth at 100 µM [9]: 23%
growth at 100 µM (T47D [10]): -73%
growth at 100 µM (MDA-MB-468): -90%
growth at 0.01 µM [11]: 105%
growth at 0.01 µM [12]: 100%
growth at 0.01 µM (T47D [13]): 101%
growth at 0.1 µM (NCI-H226): 79%
growth at 0.1 µM (HT-29 [14]): 105%
growth at 0.1 µM (SNB-19): 91%
growth at 0.1 µM (U-251): 93%
GI50 (A549 [15]): 7.27 µM
LC50 (A549 [15]): > 25 µM
TGI (A549 [15]): 24.9 µM
GI50 (COLO 205): 3.98 µM
TGI (COLO 205): 7.57 µM
CC50 (COLO 205): 14.4 µM
growth at 0.1 µM [16]: 104%
growth at 0.1 µM (T47D [17]): 100%
growth at 1 µM (K562): 91%
growth at 1 µM (HOP-62): 97%
growth at 1 µM (NCI-H23): 94%
growth at 1 µM (HCC 2998): 99%
growth at 1 µM [18]: 98%
growth at 1 µM [19]: 103%
growth at 1 µM (CAKI-1): 89%
growth at 1 µM (SN12C [20]): 93%
growth at 1 µM (TK-10 [21]): 99%
